≈ marks a conversion by molar mass, not a printed value.
How the values were obtained:
Type in all cases: functional
Staphylococcus aureus [1] = experiment: Antibacterial activity against Staphylococcus aureus assessed as bacterial growth inhibition measured after 24 hrs by agar cup diffusion assay
Escherichia coli = experiment: Antibacterial activity against Escherichia coli assessed as bacterial growth inhibition measured after 24 hrs by agar cup diffusion assay
Staphylococcus aureus [2] = experiment: Potency index, ratio of ciprofloxacin MIC to test compound MIC for antimicrobial activity against Staphylococcus aureus assessed as bacterial growth inhibition measured after 24 hrs by agar cup diffusion assay
Pseudomonas aeruginosa = experiment: Antibacterial activity against Pseudomonas aeruginosa assessed as bacterial growth inhibition measured after 24 hrs by agar cup diffusion assay
Staphylococcus aureus [3] = experiment: Potency index, ratio of ciprofloxacin MIC to test compound MIC for antibacterial activity against Staphylococcus aureus assessed as bacterial growth inhibition by broth microdilution assay
Staphylococcus aureus [4] = experiment: Antibacterial activity against Staphylococcus aureus assessed as bacterial growth inhibition by broth microdilution assay

MIC (Staphylococcus aureus [1])	MIC (Escherichia coli)	MIC (Pseudomonas aeruginosa)	MIC (Staphylococcus aureus [4])	Compound	Ratio (Staphylococcus aureus [2])	Ratio (Staphylococcus aureus [3])
0.06 µg/mL (≈ 0.0976 µM)	0.06 µg/mL (≈ 0.0976 µM)	0.06 µg/mL (≈ 0.0976 µM)		O=C(/C=C/c1cccc(Cl)c1)c1ccc(NC(=O)N2CCN(c3cc4c(cc3F)c(=O)c(C(=O)O)cn4C3CC3)CC2)cc1	54	
			≤ 0.125 µg/mL	O=C(CN1CCN(c2cc3c(cc2F)c(=O)c(C(=O)O)cn3C2CC2)CC1)N/N=C/C=C/c1c(F)cccc1F		>=4

Reference: ChEMBL document CHEMBL5360532, “Current scenario of quinolone hybrids with potential antibacterial activity against ESKAPE pathogens” (Eur J Med Chem, 2023)
